For four compounds, Ki results are on record in ChEMBL document CHEMBL1129849, “Synthesis and evaluation of delta lactams as nonpeptide HIV-protease inhibitors” (Bioorg Med Chem Lett, 1997).

The target of this test is Human immunodeficiency virus type 1 protease (Human immunodeficiency virus 1, UniProt Q72874). Briefly: Compound was tested for the inhibitory activity against HIV-protease.

Broadly, the Ki is the equilibrium dissociation constant of an inhibitor or competing ligand from its target. A low value points to tighter binding. Turning to `O=C1N(Cc2ccccc2)C[C@H](O)[C@@H](Cc2ccccc2)N1Cc1ccccc1`, the affinity, expressed as Ki, was 11 µM. With `O=C1N[C@H](CCc2ccccc2)[C@@H](O)[C@@H](Cc2ccccc2)N1Cc1ccccc1`, the Ki came to 0.066 µM. Next, `O=C1[C@@H](Cc2ccccc2)C[C@@H](O)[C@@H](Cc2ccccc2)N1Cc1ccccc1`: 9.4 µM. The same measure for `O=C1N(Cc2ccccc2)C[C@@H](O)[C@@H](Cc2ccccc2)N1Cc1ccccc1`: 0.0025 µM.
